From patent US20090048214A1, “Methods for Treating Renal Tumors Using 2, 4-Pyrimidinediamine Drug and Prodrug Compounds” (RIGEL PHARMACEUTICALS, INC, priority 2006, published 2009)

What was measured:
MOLT-4 [1] = details: MOLT-4, Leukemia; besylate salt
A549/ATCC = details: Non-Small Cell Lung Cancer, besylate salt
NCI-H23 = details: NCI-H23, Non-Small Cell Lung Cancer; besylate salt
NCI-H460 [2] = details: NCI-H460, Non-Small Cell Lung Cancer; besylate salt
COLO 205 [3] = details: COLO 205, Colon Cancer; besylate salt
HCC-2998 = details: HCC-2998, Colon Cancer; besylate salt
CCRF-CEM = assay: cells; details: Homo sapiens, read-out: LC50
SF-268 = details: SF-268, CNS Cancer; besylate salt
SK-MEL-2 = details: SK-MEL-2, Melanoma; besylate salt
UACC-257 [4] = details: UACC-257, Melanoma; besylate salt
UACC-62 = details: UACC-62, Melanoma; besylate salt
OVCAR-4 = details: OVCAR-4, Ovarian Cancer; besylate salt
K-562 = assay: cells; details: Homo sapiens
OVCAR-8 = details: OVCAR-8, Ovarian Cancer; besylate salt
SK-OV-3 [5] = details: SK-OV-3, Ovarian Cancer; besylate salt
ACHN [6] = details: Renal Cancer, besylate salt
SN12C [7] = details: Renal Cancer, besylate salt
TK-10 = details: TK-10, Renal Cancer; besylate salt
MOLT-4 [8] = assay: cells; details: Homo sapiens
PC-3 [9] = details: PC-3, Prostate Cancer; besylate salt
MDA-MB-435 = details: MDA-MB-435, Breast Cancer; besylate salt
NCI-H226 = assay: cells; details: Homo sapiens
NCI-H460 [10] = assay: cells; details: Homo sapiens, NCI-H460, read-out: LC50
COLO 205 [11] = assay: cells; details: Homo sapiens
KM12 = assay: cells; details: Homo sapiens
U251 = assay: cells; details: Homo sapiens, U-251, read-out: LC50
LOX I MVI = assay: cells; details: Homo sapiens, LOX IMVI
M14 = assay: cells; details: Homo sapiens
SK-MEL-28 = assay: cells; details: Homo sapiens
UACC-257 [12] = assay: cells; details: Homo sapiens
IGROV1 = assay: cells; details: Homo sapiens
SK-OV-3 [13] = assay: cells; details: Homo sapiens
786-0 = assay: cells; details: Homo sapiens
A498 = assay: cells; details: Homo sapiens
ACHN [14] = assay: cells; details: Homo sapiens
SN12C [15] = assay: cells; details: Homo sapiens
PC-3 [16] = assay: cells; details: Homo sapiens
MDA-MB-231/ATCC = assay: cells; details: Homo sapiens, MDA-MB-231, read-out: LC50

In the case of `COc1cc(Nc2ncc(F)c(Nc3ccc4c(n3)NC(=O)C(C)(C)O4)n2)cc(OC)c1OC` [Compound 1], the TGI (MOLT-4 [1]) is reported as >1.00E−4, the TGI (A549/ATCC) is reported as >1.00E−4 and the TGI (NCI-H23) is reported as >1.00E−4. The TGI (NCI-H460 [2]) was >1.00E−4, the TGI (COLO 205 [3]) was >1.00E−4 and the TGI (HCC-2998) was >1.00E−4. The CC50 (CCRF-CEM) was > 100 µM, the TGI (SF-268) was >1.00E−4 and the TGI (SK-MEL-2) was >1.00E−4. The TGI (UACC-257 [4]) was >1.00E−4, the TGI (UACC-62) was >1.00E−4 and the TGI (OVCAR-4) was >1.00E−4. The IC50 (K-562; K562, read-out: G150) was > 100 µM, the CC50 (K-562; K562, read-out: LC50) was > 100 µM and the TGI (OVCAR-8) was >1.00E−4. For the same molecule, the TGI (SK-OV-3 [5]) was >1.00E−4, the TGI (ACHN [6]) was >1.00E−4 and the TGI (SN12C [7]) was >1.00E−4. For the same molecule, the TGI (TK-10) was >1.00E−4, the IC50 (MOLT-4 [8]; MOLT-4, read-out: G150) was 4.82 µM and the CC50 (MOLT-4 [8]; MOLT-4, read-out: LC50) was > 100 µM. For the same molecule, the TGI (PC-3 [9]) was >1.00E−4, the TGI (MDA-MB-435) was >1.00E−4 and the IC50 (NCI-H226; NCI-H226, read-out: G150) was 0.497 µM. For the same molecule, the CC50 (NCI-H226; NCI-H226, read-out: LC50) was > 100 µM, the CC50 (NCI-H460 [10]) was > 100 µM and the IC50 (COLO 205 [11]; COLO 205, read-out: G150) was 7.26 µM. For the same molecule, the CC50 (COLO 205 [11]; COLO 205, read-out: LC50) was > 100 µM, the IC50 (KM12; KM12, read-out: G150) was 0.355 µM and the CC50 (KM12; KM12, read-out: LC50) was > 100 µM. For the same molecule, the CC50 (U251) was > 100 µM, the IC50 (LOX I MVI; read-out: G150) was 1.13 µM and the CC50 (LOX I MVI; read-out: LC50) was > 100 µM. The IC50 (M14; M14, read-out: G150) was > 100 µM, the CC50 (M14; M14, read-out: LC50) was > 100 µM and the IC50 (SK-MEL-28; SK-MEL-28, read-out: G150) was > 100 µM. For the same molecule, the CC50 (SK-MEL-28; SK-MEL-28, read-out: LC50) was > 100 µM, the IC50 (UACC-257 [12]; UACC-257, read-out: G150) was > 100 µM and the CC50 (UACC-257 [12]; UACC-257, read-out: LC50) was > 100 µM. For the same molecule, the IC50 (IGROV1; IGROV-1, read-out: G150) was 0.796 µM, the CC50 (IGROV1; IGROV-1, read-out: LC50) was > 100 µM and the IC50 (SK-OV-3 [13]; SK-OV-3, read-out: G150) was 0.429 µM. For the same molecule, the CC50 (SK-OV-3 [13]; SK-OV-3, read-out: LC50) was > 100 µM, the IC50 (786-0; 786-0, read-out: G150) was 0.873 µM and the CC50 (786-0; 786-0, read-out: LC50) was > 100 µM. The IC50 (A498; A498, read-out: G150) was 0.36 µM, the CC50 (A498; A498, read-out: LC50) was > 100 µM and the IC50 (ACHN [14]; read-out: G150) was 1.24 µM. The CC50 (ACHN [14]; read-out: LC50) was > 100 µM, the IC50 (SN12C [15]; read-out: G150) was 0.698 µM and the CC50 (SN12C [15]; read-out: LC50) was > 100 µM. For the same molecule, the IC50 (PC-3 [16]; PC-3, read-out: G150) was 3.07 µM, the CC50 (PC-3 [16]; PC-3, read-out: LC50) was > 100 µM and the CC50 (MDA-MB-231/ATCC) was > 100 µM.
